This note sets out measurements from BindingDB's records for doi:10.1038/nchembio753 (Stanford University School of Medicine, 2006).

The structures appear in SMILES notation.

The target of this test is Sonic hedgehog protein (Mus musculus, UniProt Q62226). Put plainly: Activation of Shh in mouse Shh Light2 cells after 30 hrs by luciferase reporter gene assay.
Sonic hedgehog protein, sequence (Q62226 25-198 limits assumed): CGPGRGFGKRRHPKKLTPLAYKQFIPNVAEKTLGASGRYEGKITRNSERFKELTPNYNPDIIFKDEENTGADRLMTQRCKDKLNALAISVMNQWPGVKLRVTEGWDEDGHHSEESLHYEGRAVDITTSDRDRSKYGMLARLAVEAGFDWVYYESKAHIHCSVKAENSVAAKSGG

Compound `c1ccc2c(Oc3nc(Nc4ccc(N5CCOCC5)cc4)c4ncn(C5CCCCC5)c4n3)cccc2c1` [Purmorphamine] had an EC50 of 1 µM.
